Experimental data published in BindingDB's records for doi:10.1016/j.bmc.2006.06.019 (University of Tennessee Health Science Center, 2006).

Target: T1, Androgen receptor (Rattus norvegicus, UniProt P15207)
T1 sequence (P15207 whole entry): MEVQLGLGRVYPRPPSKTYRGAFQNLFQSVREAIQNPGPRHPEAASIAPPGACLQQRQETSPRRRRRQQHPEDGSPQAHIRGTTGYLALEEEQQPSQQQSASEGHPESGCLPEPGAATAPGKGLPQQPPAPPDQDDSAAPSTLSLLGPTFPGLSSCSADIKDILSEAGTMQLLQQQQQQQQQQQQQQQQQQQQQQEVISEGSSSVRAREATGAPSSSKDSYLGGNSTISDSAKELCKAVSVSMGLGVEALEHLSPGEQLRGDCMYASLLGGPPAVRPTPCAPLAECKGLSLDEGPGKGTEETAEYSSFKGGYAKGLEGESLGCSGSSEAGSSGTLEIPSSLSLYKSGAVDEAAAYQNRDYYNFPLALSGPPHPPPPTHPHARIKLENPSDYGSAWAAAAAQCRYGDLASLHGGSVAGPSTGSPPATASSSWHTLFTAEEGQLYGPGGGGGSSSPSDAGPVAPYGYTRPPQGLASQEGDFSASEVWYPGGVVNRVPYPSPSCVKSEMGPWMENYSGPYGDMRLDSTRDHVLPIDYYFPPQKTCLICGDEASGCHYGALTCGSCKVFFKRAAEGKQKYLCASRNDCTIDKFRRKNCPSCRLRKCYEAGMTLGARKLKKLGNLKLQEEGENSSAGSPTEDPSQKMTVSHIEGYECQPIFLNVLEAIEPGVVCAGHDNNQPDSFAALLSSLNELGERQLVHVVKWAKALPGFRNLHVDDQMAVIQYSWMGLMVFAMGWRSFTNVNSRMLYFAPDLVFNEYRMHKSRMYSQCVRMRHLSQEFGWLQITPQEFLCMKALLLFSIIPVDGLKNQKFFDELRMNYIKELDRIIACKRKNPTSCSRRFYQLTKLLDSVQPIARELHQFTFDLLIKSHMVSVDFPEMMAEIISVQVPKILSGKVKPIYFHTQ
Test: Competitive Radioligand Displacement Assay
Settings: pH 7.4; 4 °C
Description: The Ki values were determined by the application of the Cheng-Prusoff equation: Ki = (IC50 x Kd)/(Kd+[L]) where [L] is the concentration of [3H]MIB (1 nM ) and Kd is the dissociation constant of the [3H]MIB determined in the saturation analysis (Kd=0.19 nM for MIB).

Structure (SMILES) | Ki [nM]
C[C@](O)(CSc1ccc(N=C=S)cc1)C(=O)Nc1ccc([N+](=O)[O-])c(C(F)(F)F)c1 [(2R)-2-hydroxy-3-[(4-isothiocyanatophenyl)sulfanyl]-2-methyl-N-[4-nitro-3-(trifluoromethyl)phenyl]propanamide] | 54.8
C[C@@](O)(COc1ccc(N=C=S)cc1)C(=O)Nc1ccc([N+](=O)[O-])c(C(F)(F)F)c1 [(2R)-2-hydroxy-3-(4-isothiocyanatophenoxy)-2-methyl-N-[4-nitro-3-(trifluoromethyl)phenyl]propanamide] | 36.2
C[C@](O)(COc1ccc(N=C=S)c(F)c1)C(=O)Nc1ccc([N+](=O)[O-])c(C(F)(F)F)c1 [(2S)-3-(3-fluoro-4-isothiocyanatophenoxy)-2-hydroxy-2-methyl-N-[4-nitro-3-(trifluoromethyl)phenyl]propanamide] | 12.6
